Data taken from patent EP0565593B1, “REDUCING PESTICIDAL INTERACTIONS IN CROPS” (priority 1990, dated 1992).
Values joined by “and” are separate entries in the source; they are usually repeats but may differ in a detail not shown here. Identical values can stand only once. Like-named read-outs stand apart in the source and are kept apart here.

Columns and labels:
Velvetleaf (VELE) = assay type: in vivo, Abutilon theophrasti
Giant foxtail (GIFT) = test: whole plant or invertebrate; assay type: in vivo; details: in vivo
Shattercane (SHCA) = assay type: in vivo
[1] = Antidote 4.48 + Biocide No. 1 8.96 Kg/Ha PPI, Herb. No. 8 0.07, 5 DAP, before herbicide application
[2] = Antidote 4.48 + Biocide No. 1 8.96 Kg/Ha PPI, Herb. No. 8 0.07 POE, 13 DAP
[3] = Antidote 4.48 + Biocide No. 1 8.96 Kg/Ha PPI, Herbicide No. 7 0.28 POE, 13 days after planting
[4] = Herb. […], 5 DAP, before herbicide application
[5] = Table 14: Herbicide No. 7 (ACCENT) 0.84 Kg/Ha POE + Biocide No. 2 8.96 Kg/Ha PPI + antidote 4.48 Kg/Ha PPI, 13 days after planting, 8 days after herbicide
[6] = […], 13 days after planting, 8 days after herbicide
[7] = […], observed 10 days after herbicide application
[8] = Antidote 8.96 + Biocide No. 1 8.96 Kg/Ha PPI, Herb. No. 8 0.07, 5 DAP, before herbicide application
[9] = Antidote 8.96 + Biocide No. 1 8.96 Kg/Ha PPI, Herb. No. 8 0.07 POE, 13 DAP
[10] = Antidote 8.96 + Biocide No. 1 8.96 Kg/Ha PPI, Herbicide No. 7 0.28 POE, 13 days after planting
[11] = Table 14: Herbicide No. 7 (ACCENT) 0.84 Kg/Ha POE + Biocide No. 2 8.96 Kg/Ha PPI + antidote 8.96 Kg/Ha PPI, 13 days after planting, 8 days after herbicide

| SMILES | % Inhibition 5 DAP VELE (Velvetleaf (VELE); [1]) | % Inhibition 13 DAP VELE (Velvetleaf (VELE); [2]) | % Inhibition VELE (Velvetleaf (VELE); [3]) | % Inhibition 5 DAP VELE (Velvetleaf (VELE); [4]) | % Inhibition VELE (Velvetleaf (VELE); [5]) | % Inhibition VELE (Velvetleaf (VELE); [6]) | % Inhibition VELE (Velvetleaf (VELE); [7]) | % Inhibition 5 DAP VELE (Velvetleaf (VELE); in vivo) | % Inhibition 13 DAP VELE (Velvetleaf (VELE); in vivo) | % Inhibition GIFT (Giant foxtail (GIFT)) | % Inhibition 5 DAP SHCA (Shattercane (SHCA); [4]) | % Inhibition SHCA (Shattercane (SHCA); [6]) | % Inhibition SHCA (Shattercane (SHCA); [7]) | % Inhibition 5 DAP SHCA (Shattercane (SHCA); in vivo) | % Inhibition 13 DAP SHCA (Shattercane (SHCA); in vivo) | % Inhibition 5 DAP Corn (Corn; [4]) | % Inhibition Corn (Corn; [6]) | % Inhibition Corn (Corn; [7]) | % Inhibition 5 DAP Corn (Corn; in vivo) | % Inhibition 13 DAP Corn (Corn; in vivo) | further results |
| --- | --- | --- | --- | --- | --- | --- | --- | --- | --- | --- | --- | --- | --- | --- | --- | --- | --- | --- | --- | --- | --- |
| C=CCN(CC=C)C(=O)C(Cl)Cl [compound 2] | 0% | 95% | 65% | 0% | 70% | 60% | 80% | 0% | 85% | 50% and 55% and 80% and 60% and 70% and 90% | 0% | 90% | 65% | 20% | 85% | 0% | 15% | 60% | 20% | 45% | % Inhibition 5 DAP SHCA (Shattercane (SHCA); [1]): 0%; % Inhibition 13 DAP SHCA (Shattercane (SHCA); [2]): 85%; % Inhibition SHCA (Shattercane (SHCA); [3]): 75%; % Inhibition SHCA (Shattercane (SHCA); [5]): 75%; % Inhibition 5 DAP Corn (Corn; [1]): 10%; % Inhibition 13 DAP Corn (Corn; [2]): 50%; % Inhibition Corn (Corn; [3]): 30%; % Inhibition Corn (Corn; [5]): 20% |
| C=CCSC(=S)N(C)c1ccccc1 [compound 29] | 0% | 95% | 70% | 0% | 70% | 65% | 75% | 20% | 95% | 55% and 75% and 65% and 95% | 10% | 85% | 60% | 40% | 85% | 0% | 35% | 75% | 35% | 65% | % Inhibition 5 DAP SHCA (Shattercane (SHCA); [1]): 40%; % Inhibition 13 DAP SHCA (Shattercane (SHCA); [2]): 80%; % Inhibition SHCA (Shattercane (SHCA); [3]): 70%; % Inhibition SHCA (Shattercane (SHCA); [5]): 80%; % Inhibition SHCA (Shattercane (SHCA); in vivo): 80% and 75% and 65% and 45%; % Inhibition 5 DAP Corn (Corn; [1]): 0%; % Inhibition 13 DAP Corn (Corn; [2]): 65%; % Inhibition Corn (Corn; [3]): 60%; % Inhibition Corn (Corn; [5]): 35% |
| CC(N=C1SCC(=C(Cl)Cl)S1)c1ccccc1 (stereo not drawn) [compound 4] | – | – | – | 0% | – | 70% | 80% | 0% | 90% | 50% and 65% and 60% and 90% and 55% | 0% | 90% | 65% | 30% | 65% | 0% | 25% | 65% | 15% | 30% | % Inhibition 5 DAP VELE (Velvetleaf (VELE); [8]): 0%; % Inhibition 13 DAP VELE (Velvetleaf (VELE); [9]): 90%; % Inhibition VELE (Velvetleaf (VELE); [10]): 70%; % Inhibition VELE (Velvetleaf (VELE); [11]): 65%; % Inhibition 5 DAP SHCA (Shattercane (SHCA); [8]): 10%; % Inhibition 13 DAP SHCA (Shattercane (SHCA); [9]): 85%; % Inhibition SHCA (Shattercane (SHCA); [10]): 75%; % Inhibition 13 DAP SHCA (Shattercane (SHCA); Herb. […], 13 DAP, after herbicide application): 90%; % Inhibition SHCA (Shattercane (SHCA); [11]): 70%; % Inhibition SHCA (Shattercane (SHCA); in vivo): 70% and 55% and 60% and 45%; % Inhibition 5 DAP Corn (Corn; [8]): 10%; % Inhibition 13 DAP Corn (Corn; [9]): 60%; % Inhibition Corn (Corn; [10]): 50%; % Inhibition Corn (Corn; [11]): 15% |
